Strand notation (5' to 3'): a small letter for the sugar, then the base; units joined by * are phosphorothioate-linked, units joined directly phosphodiester-linked; [ ] holds rarer units or linkages, { } end groups; capitals alone tell only the bases. d = 2'-deoxy (DNA)
Assays:
ICAM-1 [1] = assay: ELISA of ICAM-1 cell surface expression in C8161 human melanoma cells; assay type: cell-based; settings: 15 μg/ml Lipofectin, 5 ng/ml TNF-α 16 hours
Protocol: (§1) ICAM-1 expression on the cell surface was measured by ELISA. Cells were treated with increasing concentrations of antisense oligonucleotides in the presence of 15 μg/ml Lipofectin for 4 hours at 37° C. ICAM-1 expression was induced by incubation with 5 ng/ml TNF-α for 16 hours. Cells were washed 3× in DPBS and fixed for 20 minutes in 2% formaldehyde. Cells were washed in DPBS, blocked with 2% BSA for 1 hour at 37° C. and incubated with ICAM-1 monoclonal antibody 84H10 (AMAC, Inc., Westbrook, Me.). Detection of bound antibody was determined by incubation with a biotinylated goat anti-mouse IgG followed by incubation with […] streptavidin and developed with chlorophenol red-β-D-galactopyranoside and quantified by absorbance at 575 nm. ICAM-1 mRNA levels were measured by Northern blot analysis.
The data were expressed as percentage of control activity, calculated as follows: (ICAM-1 expression for oligonucleotide-treated, cytokine-induced cells)−(basal ICAM-1 expression)/(ICAM-1 cytokine-induced expression)−(basal ICAM-1 expression)×100.

[2] = test system: adherence of HL-60 cells to human umbilical vein endothelial cells; assay: Cell adherence assay: DMSO differentiated HL-60 cells to TNF treated HUVEC; assay type: cell-based
Protocol: Target cells are grown as a monolayer in a multiwell plate, treated with oligonucleotide followed by cytokine. The adhering cells are then added to the monolayer cells and incubated for 30 to 60 minutes at 37° C. and washed to remove nonadhering cells. Cells adhering to the monolayer may be determined either by directly counting the adhering cells or prelabeling the cells with a radioisotope such as ^51Cr and quantitating the radioactivity associated with the monolayer as described. Dustin and Springer, J. Cell Biol. 1988, 107, 321-331. Antisense oligonucleotides may target either ICAM-1, VCAM-1 or ELAM-1 in the assay.
An example of the effects of antisense oligonucleotides targeting ICAM-1 mRNA on the adherence of DMSO differentiated HL-60 cells to tumor necrosis factor treated human umbilical vein endothelial cells is shown in FIG. 7. Human umbilical vein endothelial cells were grown to 80% confluence in 12 well plates. The cells were treated with 2 μM oligonucleotide diluted in Opti-MEM containing 8 μM DOTMA for 4 hours at 37° C. The medium was removed and replaced with fresh endothelial cell growth medium (EGM-UV) containing 2 μM of the indicated oligonucleotide and incubated 4 hours at 37° C. Tumor necrosis factor, 1 ng/ml, was added to cells as indicated and cells incubated for an additional 19 hours. The cells were washed once with EGM-UV and 1.6×10^6 HL-60 cells differentiated for 4 days with 1.3% DMSO added. The cells were allowed to attach for 1 hour at 37° C. and gently washed 4 times with Dulbecco's phosphate-buffered saline (D-PBS) warmed to 37° C. Adherent cells were detached from the monolayer by addition of 0.25 ml of cold (4EC) phosphate-buffered saline containing 5 mM EDTA and incubated on ice for 5 minutes. The number of cells removed by treatment with EDTA was determined by counting with a hemocytometer. Endothelial cells detached from the monolayer by EDTA treatment could easily be distinguished from HL-60 cells by morphological differences. In the absence of tumor necrosis factor, 3% of the HL-60 cells bound to the endothelial cells. Treatment of the endothelial cell monolayer with 1 ng/ml tumor necrosis factor increased the number of adhering cells to 59% of total cells added (FIG. 7).
Human umbilical vein endothelial (HUVEC) cells were grown and treated with oligonucleotides as in Example 4. Cells were treated with either ISIS 1939, ISIS 1940, or the control oligonucleotide ISIS 1821 for 4 hours, then stimulated with TNF-α for 20 hours. Basal HUVEC minimally bound HL-60 cells, while TNF-stimulated HUVEC bound 19% of the total cells added. Pretreatment of the HUVEC monolayer with 0.3 ìM ISIS 1939 reduced the adherence of HL-60 cells to basal levels, as shown in FIG. 11.

ICAM-1 [3] = assay: ELISA screening for ICAM-1 expression in interleukin-1β-stimulated cells (HUVEC and A549); assay type: cell-based, human; settings: for inhibition of ICAM-1 expression, relative activity in words: interleukin-1β-stimulated cells, two cell lines (HUVEC, A549); for inhibition of ICAM-1 expression after premixing with respective sense strand: premixed/prehybridized at equal molar concentrations with sense strand (ISIS 1575 or ISIS 2115)
ICAM-1 mRNA = assay: Northern blot of ICAM-1 mRNA in C8161 cells; assay type: cell-based, human; settings: Northern blot analysis
Protocol: as §1

Substance | cell surface expression of ICAM-1 (ICAM-1 [1]) | HL-60 cells adhering, % of total cells added ([2]; 2 μM oligonucleotide, HUVEC treated with 1 ng/ml tumor necrosis factor, control 59%) | number of HL-60 cells adhering to the monolayer ([2]; 2 μM oligonucleotide, absence of tumor necrosis factor treatment) | inhibition of ICAM-1 expression, relative activity in words (ICAM-1 [3]) | inhibition of ICAM-1 expression after premixing with respective sense strand (ICAM-1 [3]) | ICAM-1 mRNA levels (ICAM-1 mRNA) | adherence of HL-60 cells ([2]; 0.3 μM oligonucleotide, TNF-α stimulated HUVEC (control bound 19%))
ISIS 1570: phosphorothioate, human ICAM-1 AUG Codon (64-81), SEQ ID NO 1, TGGGAGCCATAGCGAGGC (antisense dT*dG*dG*dG*dA*dG*dC*dC*dA*dT*dA*dG*dC*dG*dA*dG*dG*dC) | decreased cell surface expression of ICAM-1 | 17% | did not change the number of cells adhering | most active | blocked the effects of ISIS 1570 | decreased ICAM-1 mRNA levels only slightly | 
ISIS 1939: P=S, human ICAM-1 3′-Untranslated (1952-1971), SEQ ID NO 15, CCCCCACCACTTCCCCTCTC (antisense dC*dC*dC*dC*dC*dA*dC*dC*dA*dC*dT*dT*dC*dC*dC*dC*dT*dC*dT*dC) | decreased cell surface expression of ICAM-1 |  |  | most active | completely blocked | markedly reduced | basal levels

— patent publication US6849612B2, “Oligonucleotide modulation of cell adhesion” (ISIS Pharmaceuticals, Inc., priority 1993, dated 2005)
